Measured values: the supplement of paper PMC10307832

Columns and labels:
[1] = compound: C1=CC2=NC=CN=C2C=C1/C=C/3\C(=O)NC(=O)S3 + COc1cc2c(Oc3ccc(NC(=O)C4(C(=O)Nc5ccc(F)cc5)CC4)cc3F)ccnc2cc1OCCCN1CCOCC1 [Foretinib] (partner 0.25 µM); test: relative viability (nuclei count vs DMSO), 5 days (fraction); higher = more cells survive
Method in brief: (§1)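 Values are medians from duplicate plates. Each reflects relative viability, defined as the nuclei count of treated wells over that of vehicle wells. Lung cancer cell lines in 1536-well plates were pin-tool dosed one day after seeding with one drug alone or with a fixed anchor-drug dose plus five library-drug doses (not always all listed) in √10 steps, then fixed, stained and imaged at 4× after 5 days.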

BGJ398 + Tozasertib = compound: CCN1CCN(c2ccc(Nc3cc(N(C)C(=O)Nc4c(Cl)c(OC)cc(OC)c4Cl)ncn3)cc2)CC1 [BGJ398] + Cc1cc(Nc2cc(N3CCN(C)CC3)nc(Sc3ccc(NC(=O)C4CC4)cc3)n2)n[nH]1 [Tozasertib] (partner 0.1 µM); test: as above
Method in brief: as §1

| Cell Line | relative viability ([1]; first compound 0.02 µM) | relative viability ([1]; first compound 0.06325 µM) | relative viability ([1]; first compound 0.2 µM) | relative viability ([1]; first compound 0.6325 µM) | relative viability ([1]; first compound 2 µM) | relative viability (BGJ398 + Tozasertib; first compound 0.01 µM) | relative viability (BGJ398 + Tozasertib; first compound 0.03162 µM) | relative viability (BGJ398 + Tozasertib; first compound 0.1 µM) | relative viability (BGJ398 + Tozasertib; first compound 0.3162 µM) | relative viability (BGJ398 + Tozasertib; first compound 1 µM) |
| --- | --- | --- | --- | --- | --- | --- | --- | --- | --- | --- |
| NCI-H650 | 1.01 | 1.09 | 1.04 | 1.08 | 0.711 | 0.681 | 0.809 | 0.802 | 0.785 | 0.75 |
| NCI-H1666 | 1.03 | 0.879 | 0.986 | 0.909 | 0.932 | 0.702 | 0.619 | 0.606 | 0.587 | 0.558 |
| NCI-H2085 | 0.966 | 1.09 | 0.902 | 1.03 | 0.882 | 0.961 | 0.877 | 0.74 | 0.732 | 0.669 |
| NCI-H1734 | 0.891 | 0.674 | 0.808 | 0.844 | 0.681 | 0.259 | 0.266 | 0.222 | 0.258 | 0.26 |
| NCI-H2126 | 0.917 | 0.987 | 1.2 | 1.11 | 0.745 | 0.892 | 0.825 | 0.911 | 0.927 | 0.868 |
| EMC-BAC-2 | 1.04 | 1.07 | 1.05 | 0.903 | 0.923 | 0.28 | 0.314 | 0.3 | 0.276 | 0.312 |
| NCI-H1993 | 0.694 | 0.817 | 0.72 | 0.748 | 0.578 | 0.526 | 0.546 | 0.651 | 0.581 | 0.616 |
| NCI-H520 | 0.71 | 0.719 | 0.846 | 0.674 | 0.648 | 0.424 | 0.421 | 0.321 | 0.273 | 0.271 |
| NCI-H647 | 1.1 | 1.39 | 1.17 | 1.11 | 1.21 | 0.366 | 0.294 | 0.406 | 0.24 | 0.304 |
| SK-LU-1 | 0.861 | 0.968 | 0.751 | 0.785 | 0.791 | 0.354 | 0.34 | 0.312 | 0.284 | 0.222 |
| ChaGo-K-1 | 0.83 | 0.673 | 0.922 | 0.844 | 0.95 | 0.229 | 0.24 | 0.19 | 0.215 | 0.226 |
| NCI-H522 | – | – | – | – | – | 0.5 | 0.552 | 0.445 | 0.586 | 0.483 |
| NCI-H1299 | 1.01 | 1.11 | 1.11 | 1.09 | 1.15 | – | – | – | – | – |
| NCI-H1650 | 1 | 0.956 | 1.07 | 1.13 | 1.08 | 0.498 | – | 0.464 | 0.289 | 0.356 |
| NCI-H2009 | 1.21 | 1.22 | 1.3 | 1.28 | 1.12 | 0.732 | 0.761 | 0.733 | 0.734 | 0.697 |
| LOU-NH91 | 0.917 | 0.965 | 0.964 | 0.923 | 0.855 | 0.656 | – | 0.698 | 0.541 | 0.737 |
| NCI-H2405 | 1.06 | 1.12 | 1.13 | 1.03 | 0.838 | 0.727 | 0.812 | 0.712 | 0.727 | 0.712 |
